Broadly, the Ki is a measure of affinity in units of concentration, obtained from inhibition or displacement. The term EC50 denotes the concentration giving half of the maximal effect. For orientation: Emax means the greatest response seen or fitted, relative to the assay's reference.

Test [1] addresses recombinant human kappa opioid receptor (κ) (Homo sapiens (Human), UniProt P41145). The test is described as follows: κ-opioid receptor radioligand dose displacement binding assay ([3H]-U69,593). Conditions: mean ± SEM, read-out: Binding Affinity Opioid Receptor Ki (nM) [mean ± SEM] κ. On the procedure: (§1) Membranes from HEK-293 cells, CHO or U-2 OS cells expressing the recombinant human kappa opioid receptor (κ) were prepared by lysing cells in ice cold hypotonic buffer (2.5 mM MgCl2, 50 mM HEPES, pH 7.4) (10 mL/10 cm dish) followed by homogenization with a tissue grinder/Teflon pestle. Membranes were collected by centrifugation at 30,000×g for 15 min at 4° C. and pellets were resuspended in hypotonic buffer to a final concentration of 1-3 mg/mL. Protein concentrations were determined using the BioRad protein assay reagent with bovine serum albumen as standard. Aliquots of κ receptor membranes were stored at −80° C.
Radioligand dose displacement assays used 0.4 nM [^3H]-U69,593 (GE Healthcare, Piscataway, N.J.; 40 Ci/mmole) with 15 μg membrane protein (recombinant κ opioid receptor expressed in HEK 293 cells; in-house prep) in a final volume of 200 μl binding buffer (5% DMSO, 50 mM Trizma base, pH 7.4). Non-specific binding was determined in the presence of 10 μM unlabeled naloxone or U69,593. All reactions were performed in 96-well polypropylene plates for 1 hour at a temperature of about 25° C. Binding reactions were terminated by rapid filtration onto 96-well Unifilter GF/C filter plates (Perkin Elmer, Shelton, Conn.) presoaked in 0.5% polyethylenimine (Sigma). Harvesting was performed using a 96-well tissue harvester (Perkin Elmer, Shelton, Conn.) followed by five filtration washes with 200 μl ice-cold binding buffer. Filter plates were subsequently dried at 50° C. for 1-2 hours. Fifty μl/well scintillation cocktail (Perkin Elmer, Shelton, Conn.) was added and plates were counted in a Packard Top-Count for 1 min/well.
(§2) The following tables provide results on the efficacy of binding and activity response of exemplified Compounds of the Invention at the μ- and κ-opioid receptors. In TABLE 3, binding affinity of certain Compounds of the Invention to the μ- and κ-opioid receptors was determined as described above. In TABLE 4, activity response of certain Compounds of the Invention to the μ- and κ-opioid receptors was determined as described above for functional assays using HEK-293 cells. In TABLE 5, activity response of certain Compounds of the Invention to the μ- and κ-opioid receptors was determined as described above using U-2 OS cells.

Test [2] deals with T1, κ opioid receptor (Homo sapiens (Human), UniProt P41145). The test is described as follows: κ-opioid receptor [35S]GTPγS functional assay, HEK-293 cells. In kind it is biochemical. Conditions: κ GTP; for EC50: read-out: Activity Response κ EC50 (nM) [mean ± SEM]; for Emax: relative to U69,593, read-out: Activity Response κ Emax (%). On the procedure: as §1
Functional [^35S]GTPγS binding assays were conducted as follows. κ opioid receptor membrane solution was prepared by sequentially adding final concentrations of 0.026 μg/μl κ membrane protein (in-house), 10 μg/mL saponin, 3 μM GDP and 0.20 nM [^35S]GTPγS to binding buffer (100 mM NaCl, 10 mM MgCl2, 20 mM HEPES, pH 7.4) on ice. The prepared membrane solution (190 μl/well) was transferred to 96-shallow well polypropylene plates containing 10 μl of 20× concentrated stock solutions of agonist prepared in DMSO. Plates were incubated for 30 min at a temperature of about 25° C. with shaking. Reactions were terminated by rapid filtration onto 96-well Unifilter GF/B filter plates (Perkin Elmer, Shelton, Conn.) using a 96-well tissue harvester (Packard) and followed by three filtration washes with 200 μl ice-cold binding buffer (10 mM NaH2PO4, 10 mM Na2HPO4, pH 7.4). Filter plates were subsequently dried at 50° C. for 2-3 hours. Fifty μl/well scintillation cocktail (Perkin Elmer, Shelton, Conn.) was added and plates were counted in a Packard Top-Count for 1 min/well.
κ GTP EC50 is the concentration of a compound providing 50% of the maximal response for the compound at a κ receptor.
κ GTP Emax (%) is the maximal effect elicited by a compound relative to the effect elicited by U69,593.
In TABLE 3, binding affinity of certain Compounds of the Invention to the μ- and κ-opioid receptors was determined as described above. In TABLE 4, activity response of certain Compounds of the Invention to the μ- and κ-opioid receptors was determined as described above for functional assays using HEK-293 cells. In TABLE 5, activity response of certain Compounds of the Invention to the μ- and κ-opioid receptors was determined as described above using U-2 OS cells.
For orientation: GTPγS is a poorly hydrolysed GTP analogue; its binding reports G protein activation.

The target of test [3] is T2, μ-opioid receptors (Homo sapiens (Human), UniProt P35372). Kind of test: μ-opioid receptor radioligand dose-displacement binding assay ([3H]-diprenorphine). Conditions: mean ± SEM, read-out: Binding Affinity Opioid Receptor Ki (nM) [mean ± SEM] μ. On the procedure:
Radioligand dose-displacement binding assays for μ-opioid receptors used 0.3 nM [^3H]-diprenorphine (Perkin Elmer, Shelton, Conn.), with […] membrane protein/well in a final volume of 500 μl binding buffer (10 mM MgCl2, 1 mM EDTA, 5% DMSO, 50 mM HEPES, pH 7.4). Reactions were carried out in the absence or presence of increasing concentrations of unlabeled naloxone. All reactions were conducted in 96-deep well polypropylene plates for 2 hours at room temperature. Binding reactions were terminated by rapid filtration onto 96-well Unifilter GF/C filter plates (Perkin Elmer, Shelton, Conn.), presoaked in 0.5% polyethylenimine using a 96-well tissue harvester (Perkin Elmer, Shelton, Conn.) followed by performing three filtration washes with 500 μl of ice-cold binding buffer. Filter plates were subsequently dried at 50° C. for 2-3 hours. BetaScint scintillation cocktail (Perkin Elmer, Shelton, Conn.) was added (50 μl/well), and plates were counted using a Packard Top-Count for 1 min/well. The data were analyzed using the one-site competition curve fitting functions in GraphPad PRISM™ v. 3.0 or higher (San Diego, Calif.), or an in-house function for one-site competition curve-fitting.
as §2

Test [4] addresses T2, μ-opioid receptors. The test is described as follows: μ-opioid receptor [35S]GTPγS functional assay, HEK-293 cells. In kind it is biochemical. Conditions: μ GTP; for EC50: read-out: Activity Response μ EC50 (nM) [mean ± SEM]; for Emax: relative to DAMGO, read-out: Activity Response μ Emax (%). On the procedure: [^35S]GTPγS functional assays were conducted using freshly thawed μ-receptor membranes prepared from a cell line expressing recombinant μ opioid receptor in a HEK-293, CHO or U-2 OS cell background or purchased from a commercial source (Perkin Elmer, Shelton, Conn.; or DiscovRx, Fremont, Calif.). Assay reactions were prepared by sequentially adding the following reagents to binding buffer (100 mM NaCl, 10 mM MgCl2, 20 mM HEPES, pH 7.4) on ice (final concentrations indicated): membrane protein (0.026 mg/mL), saponin ([…]), GDP ([…]) and [^35S]GTPγS (0.20 nM; Perkin Elmer, Shelton, Conn.). The prepared membrane solution (190 μl/well) was transferred to 96-shallow well polypropylene plates containing 10 μl of 20× concentrated stock solutions of the agonist [D-Ala^2, N-methyl-Phe^4 Gly-ol^5]-enkephalin (DAMGO) prepared in dimethyl sulfoxide (DMSO). Plates were incubated for 30 min at about 25° C. with shaking. Reactions were terminated by rapid filtration onto 96-well Unifilter GF/B filter plates (Perkin Elmer, Shelton, Conn.) using a 96-well tissue harvester (Perkin Elmer, Shelton, Conn.) followed by three filtration washes with 200 μl of ice-cold wash buffer (10 mM NaH2PO4, 10 mM Na2HPO4, pH 7.4). Filter plates were subsequently dried at 50° C. for 2-3 hours. BetaScint scintillation cocktail (Perkin Elmer, Shelton, Conn.) was added (50 μl/well) and plates were counted using a Packard Top-Count for 1 min/well. Data were analyzed using the sigmoidal dose-response curve fitting functions in GraphPad PRISM v. 3.0, or an in-house function for non-linear, sigmoidal dose-response curve-fitting.
μ GTP EC50 is the concentration of a compound providing 50% of the maximal response for the compound at a μ-opioid receptor.
μ GTP Emax (%) is the maximal effect elicited by a compound relative to the effect elicited by DAMGO, a standard μ agonist. Generally, the μ GTP Emax (%) value measures the efficacy of a compound to treat or prevent pain or other Conditions.
as §2

Test [5] concerns the target T1, κ opioid receptor. The test is described as follows: κ-opioid receptor [35S]GTPγS functional assay, U-2 OS cells. In kind it is biochemical. Conditions: κ GTP; for EC50: read-out: Activity Response κ EC50 (nM) [mean ± SEM]; for Emax: relative to U69,593, read-out: Activity Response κ Emax (%).
Test [6] deals with T2, μ-opioid receptors. The test is described as follows: μ-opioid receptor [35S]GTPγS functional assay, U-2 OS cells. In kind it is biochemical. Conditions: μ GTP; for EC50: read-out: Activity Response μ EC50 (nM) [mean ± SEM]; for Emax: relative to DAMGO, read-out: Activity Response μ Emax (%).

`O=C(O)C[C@H]1C[C@@]2(O)[C@H]3Cc4ccc(O)cc4[C@@]2(CCN3CC2CC2)CC1=O` [Compound 9, 2-((4bR,7R,8aS,9R)-11-(cyclopropylmethyl)-3,8a-dihydroxy-6-oxo-6,7,8,8a,9,10-hexahydro-5H-9,4b-(epiminoethano)phenanthren-7-yl)acetic acid]: the inhibition constant (Ki) came out at 0.97 ± 0.19 nM in test [1] and 6.18 ± 0.76 nM on μ-opioid receptors [3]. The half-maximal effective concentration (EC50) was 17.3 ± 3.73 nM at κ opioid receptor [2] and greater than 200000 nM at μ-opioid receptors [4]. Besides, the Emax on κ opioid receptor [2] is 40.8 ± 1.93%; at μ-opioid receptors [4] it was -1%.

`C[C@H](NC(=O)C[C@H]1C[C@@]2(O)[C@H]3Cc4ccc(O)cc4[C@@]2(CCN3CC2CC2)CC1=O)C(=O)O` [Compound 15, (S)-2-(2-((4bR,7R,8aS,9R)-11-(cyclopropylmethyl)-3,8a-dihydroxy-6-oxo-6,7,8,8a,9,10-hexahydro-5H-9,4b-(epiminoethano)phenanthren-7-yl)acetamido)propanoic acid]: the inhibitory constant (Ki) in test [1] was determined as 191 ± 45.8 nM. On κ opioid receptor [2], the concentration giving a half-maximal response (EC50) amounted to 221 ± 59.4 nM and the Emax amounted to 36 ± 2%. Moreover, on μ-opioid receptors [4], the EC50 stood at 43.8 ± 14.7 nM and the Emax was 36.2 ± 3.75%.

Regarding `O=C1C[C@]23CCN(CC4CC4)[C@H](Cc4ccc(O)cc42)[C@]3(O)C[C@@H]1CC(=O)N1CCC[C@H]1C(=O)O` [Compound 17, (S)-1-(2-((4bR,7R,8aS,9R)-11-(cyclopropylmethyl)-3,8a-dihydroxy-6-oxo-6,7,8,8a,9,10-hexahydro-5H-9,4b-(epiminoethano)phenanthren-7-yl)acetyl)pyrrolidine-2-carboxylic acid], the Ki in test [1] was determined as 128 ± 18.1 nM. At κ opioid receptor [2], the EC50 was greater than 200000 nM. In addition, on μ-opioid receptors [4], the half-maximal effective concentration (EC50) is greater than 200000 nM and the Emax stood at 0%.

As to `CC(C)C[C@H](NC(=O)C[C@H]1C[C@@]2(O)[C@H]3Cc4ccc(O)cc4[C@@]2(CCN3CC2CC2)CC1=O)C(=O)O` [Compound 19, (S)-2-(2-((4bR,7R,8aS,9R)-11-(cyclopropylmethyl)-3,8a-dihydroxy-6-oxo-6,7,8,8a,9,10-hexahydro-5H-9,4b-(epiminoethano)phenanthren-7-yl)acetamido)-4-methylpentanoic acid], the inhibition constant (Ki) in test [1] is 146 ± 29.7 nM. The values for the 50% effective concentration (EC50) at κ opioid receptor [2] and at μ-opioid receptors [4] were 201 ± 25.9 nM and 49.7 ± 7.48 nM, respectively. Also, the results for the Emax at κ opioid receptor [2] and on μ-opioid receptors [4] were 41.3 ± 2.85% and 37.5 ± 3.93%, respectively.

For the molecule `COc1ccc2c(c1)[C@]13CCN(CC4CC4)[C@H](C2)[C@]1(O)C[C@H](CCO)C(=O)C3` [Compound 46, (4bR,7S,8aS,9R)-11-(cyclopropylmethyl)-8a-hydroxy-7-(2-hydroxyethyl)-3-methoxy-8,8a,9,10-tetrahydro-5H-9,4b-(epiminoethano)phenanthren-6(7H)-one], the inhibitory constant (Ki) stood at 394 ± 85.2 nM in test [1] and 591 ± 80.3 nM at μ-opioid receptors [3]. For the same molecule, the values for the EC50 on κ opioid receptor [5] and at μ-opioid receptors [6] were 1020 ± 110 nM and 409 ± 88.5 nM, respectively. The Emax came to 109 ± 4.84% at κ opioid receptor [5] and 68.7 ± 4.1% at μ-opioid receptors [6].

In the case of `COc1ccc2c(c1)[C@]13CCN(CC4CC4)[C@H](C2)[C@]1(O)C[C@H](CCOCc1ccccc1)C(=O)C3` [Compound 48, (4bR,7S,8aS,9R)-7-(2-(benzyloxy)ethyl)-11-(cyclopropylmethyl)-8a-hydroxy-3-methoxy-8,8a,9,10-tetrahydro-5H-9,4b-(epiminoethano)phenanthren-6(7H)-one], the Ki is 65.3 ± 4.49 nM in test [1] and 223 ± 32.5 nM at μ-opioid receptors [3]. In addition, the EC50 at κ opioid receptor [2] turned out to be 362 ± 36.6 nM; at μ-opioid receptors [4], 463 ± 32.6 nM; on κ opioid receptor [5], 225 ± 20.1 nM; at μ-opioid receptors [6], 38.6 ± 2.85 nM. Besides, the Emax on κ opioid receptor [2] came to 70.3 ± 6.94%; on μ-opioid receptors [4] it was 139 ± 3.21%; on κ opioid receptor [5] it was 119 ± 4.91%; on μ-opioid receptors [6], 98 ± 2.65%.

Regarding `COCC[C@H]1C[C@@]2(O)[C@H]3Cc4ccc(OC)cc4[C@@]2(CCN3CC2CC2)CC1=O` [Compound 49, (4bR,7S,8aS,9R)-11-(cyclopropylmethyl)-8a-hydroxy-3-methoxy-7-(2-methoxyethyl)-8,8a,9,10-tetrahydro-5H-9,4b-(epiminoethano)phenanthren-6(7H)-one], the Ki in test [1] came out at 324 ± 48 nM. The Ki on μ-opioid receptors [3] amounted to 1960 ± 638 nM. In addition, on κ opioid receptor [5], the EC50 was found to be 1280 ± 160 nM and the Emax was 108 ± 5.57%.

(Values after patent publication US9388162B2, “Substituted morphinans and the use thereof” (Purdue Pharma L.P., priority 2012, dated 2016).)
